According to patent US9062066B2, “Anti-inflammatory compound having inhibitory activity against multiple tyrosine kinases and pharmaceutical composition containing same” (KOREA INSTITUTE OF SCIENCE AND TECHNOLOGY, priority 2010, dated 2015):
Like-named read-outs stand apart in the source and are kept apart here.

Tests used:
[1] = biological target: Hck tyrosine kinase (Homo sapiens (Human), UniProt P08631); test: in vitro Hck tyrosine kinase inhibition; type: biochemical; settings: for inhibition at 1 µM: read-out: % inhibition against Hck
[2] = biological target: Fgr tyrosine kinase (Homo sapiens (Human), UniProt P09769); test: in vitro Fgr tyrosine kinase inhibition; type: biochemical; settings: for inhibition at 1 µM: read-out: % inhibition against Fgr
[3] = biological target: c-Src tyrosine kinase (Homo sapiens (Human), UniProt P12931); test: in vitro c-Src tyrosine kinase inhibition (32P-ATP, poly(D4Y)n substrate); type: biochemical; settings: for inhibition at 1 µM: read-out: % inhibition against c-Src
[4] = biological target: DDR1 tyrosine kinase (Homo sapiens (Human), UniProt Q08345); test: in vitro DDR1 tyrosine kinase inhibition (GST-fused kinase domain); type: biochemical; settings: for inhibition at 1 µM: read-out: % inhibition against DDR1
[5] = test system: TNF-α synthesis in J744A.1 macrophages; test: inhibition of TNF-α synthesis in LPS-activated macrophages (ELISA); type: cell-based; settings: Macrophage, read-out: Inhibition (%) of TNF-α synthesis
[6] = biological target: Lyn tyrosine kinase (Homo sapiens (Human), UniProt P07948); test: in vitro Lyn tyrosine kinase inhibition; type: biochemical; settings: for inhibition at 1 µM: read-out: % inhibition against Lyn
[7] = test system: NO synthesis in J744A.1 macrophage; test: inhibition of nitric oxide (NO) synthesis in LPS-activated macrophages (Griess reagent); type: cell-based; settings: read-out: Inhibition (%) of NO synthesis
[8] = biological target: DDR2 tyrosine kinase (Homo sapiens (Human), UniProt Q16832); test: in vitro DDR2 tyrosine kinase inhibition (GST-fused kinase domain); type: biochemical; settings: for inhibition at 1 µM: read-out: % inhibition against DDR2
[9] = 10 μM compound, 100 ng/ml LPS, 6 hours

Chain of Hck tyrosine kinase (P08631 whole entry): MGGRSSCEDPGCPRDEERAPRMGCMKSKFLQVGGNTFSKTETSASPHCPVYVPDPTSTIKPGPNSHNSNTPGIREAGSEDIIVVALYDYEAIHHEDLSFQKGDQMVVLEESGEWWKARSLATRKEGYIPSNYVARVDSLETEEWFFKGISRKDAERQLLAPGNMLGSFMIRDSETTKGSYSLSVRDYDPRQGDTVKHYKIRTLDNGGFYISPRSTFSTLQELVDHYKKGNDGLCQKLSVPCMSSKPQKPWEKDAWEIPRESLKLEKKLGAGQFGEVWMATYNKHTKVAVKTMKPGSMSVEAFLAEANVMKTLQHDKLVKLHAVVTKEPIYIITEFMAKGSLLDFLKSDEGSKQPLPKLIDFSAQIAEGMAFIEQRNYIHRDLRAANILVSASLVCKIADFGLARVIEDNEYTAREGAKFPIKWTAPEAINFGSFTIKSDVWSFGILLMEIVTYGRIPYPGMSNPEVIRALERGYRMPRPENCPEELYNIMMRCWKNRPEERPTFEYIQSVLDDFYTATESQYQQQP
Chain of DDR1 tyrosine kinase (Q08345 610-905): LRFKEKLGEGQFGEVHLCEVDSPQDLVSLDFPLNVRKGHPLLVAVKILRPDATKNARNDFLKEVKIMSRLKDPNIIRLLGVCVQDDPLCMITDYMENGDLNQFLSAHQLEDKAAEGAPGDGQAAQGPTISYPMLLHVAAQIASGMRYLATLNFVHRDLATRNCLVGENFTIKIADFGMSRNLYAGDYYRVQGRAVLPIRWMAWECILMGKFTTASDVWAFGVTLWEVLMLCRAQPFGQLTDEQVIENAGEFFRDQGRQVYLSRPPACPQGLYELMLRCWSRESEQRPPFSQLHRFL
Chain of c-Src tyrosine kinase (P12931 whole entry, looked up, the tested form may be a part): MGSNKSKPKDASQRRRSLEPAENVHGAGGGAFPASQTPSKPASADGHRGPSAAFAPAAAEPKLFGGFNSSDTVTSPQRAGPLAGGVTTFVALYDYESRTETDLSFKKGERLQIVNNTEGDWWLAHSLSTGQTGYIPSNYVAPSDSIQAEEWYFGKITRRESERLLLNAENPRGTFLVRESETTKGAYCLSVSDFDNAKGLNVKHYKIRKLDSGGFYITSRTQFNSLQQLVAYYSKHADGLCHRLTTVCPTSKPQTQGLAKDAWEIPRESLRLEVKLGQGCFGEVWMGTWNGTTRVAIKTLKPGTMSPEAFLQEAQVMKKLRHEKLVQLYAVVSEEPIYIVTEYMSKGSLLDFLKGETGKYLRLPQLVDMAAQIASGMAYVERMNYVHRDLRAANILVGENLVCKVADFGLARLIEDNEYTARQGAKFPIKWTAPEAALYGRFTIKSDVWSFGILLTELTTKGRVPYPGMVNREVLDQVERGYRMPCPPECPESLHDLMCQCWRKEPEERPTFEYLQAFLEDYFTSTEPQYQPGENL
Chain of DDR2 tyrosine kinase (Q16832 563-849): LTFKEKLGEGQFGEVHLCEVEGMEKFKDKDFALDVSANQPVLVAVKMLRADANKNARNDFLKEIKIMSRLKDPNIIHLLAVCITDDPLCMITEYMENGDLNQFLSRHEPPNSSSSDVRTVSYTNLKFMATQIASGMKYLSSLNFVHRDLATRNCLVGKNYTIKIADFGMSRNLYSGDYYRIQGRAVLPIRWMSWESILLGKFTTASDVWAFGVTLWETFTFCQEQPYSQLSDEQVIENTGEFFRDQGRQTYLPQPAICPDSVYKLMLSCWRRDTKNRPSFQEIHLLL
Chain of Fgr tyrosine kinase (P09769 whole entry): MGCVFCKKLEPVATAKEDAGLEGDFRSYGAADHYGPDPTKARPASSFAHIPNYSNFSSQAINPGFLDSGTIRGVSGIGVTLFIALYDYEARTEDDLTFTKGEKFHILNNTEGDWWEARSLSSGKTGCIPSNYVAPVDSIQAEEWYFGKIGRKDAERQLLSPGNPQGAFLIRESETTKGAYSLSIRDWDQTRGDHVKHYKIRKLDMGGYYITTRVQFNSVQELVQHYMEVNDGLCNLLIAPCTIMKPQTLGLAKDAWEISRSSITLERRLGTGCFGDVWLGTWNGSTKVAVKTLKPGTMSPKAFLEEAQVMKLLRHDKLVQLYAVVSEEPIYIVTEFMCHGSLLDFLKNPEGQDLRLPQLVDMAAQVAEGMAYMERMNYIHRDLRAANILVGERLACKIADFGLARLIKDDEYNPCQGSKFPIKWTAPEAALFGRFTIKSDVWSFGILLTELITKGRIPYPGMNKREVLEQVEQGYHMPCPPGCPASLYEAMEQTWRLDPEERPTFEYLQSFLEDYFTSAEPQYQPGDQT
Chain of Lyn tyrosine kinase (P07948 whole entry): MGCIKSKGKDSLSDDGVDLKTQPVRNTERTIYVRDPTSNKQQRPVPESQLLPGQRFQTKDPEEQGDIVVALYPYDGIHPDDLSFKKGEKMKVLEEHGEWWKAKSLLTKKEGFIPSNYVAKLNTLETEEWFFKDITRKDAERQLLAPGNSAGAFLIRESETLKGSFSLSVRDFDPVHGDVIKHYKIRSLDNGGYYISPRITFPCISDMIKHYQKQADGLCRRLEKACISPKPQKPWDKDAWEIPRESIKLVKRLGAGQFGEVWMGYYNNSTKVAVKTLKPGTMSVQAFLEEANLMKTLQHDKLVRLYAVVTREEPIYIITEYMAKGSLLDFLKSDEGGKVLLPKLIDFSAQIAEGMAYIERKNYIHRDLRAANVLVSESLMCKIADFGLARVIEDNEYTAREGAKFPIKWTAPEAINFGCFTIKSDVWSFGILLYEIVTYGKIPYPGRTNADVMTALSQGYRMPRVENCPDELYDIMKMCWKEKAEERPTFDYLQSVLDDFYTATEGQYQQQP

SMILES | inhibition at 1 µM ([1]; 1 uM compound) [%] | inhibition at 1 µM ([2]; 1 uM compound) [%] | inhibition at 1 µM ([3]; 1 uM compound) [%] | inhibition at 1 µM ([4]; 1 uM compound) [%] | inhibition at 10 µM [5, 9] [%] | inhibition at 1 µM ([6]; 1 uM compound) [%] | inhibition at 10 µM ([7]; 10 μM compound, LPS, 24 hours) [%] | inhibition at 1 µM ([8]; 1 uM compound) [%] | further results
Oc1cccc(Nc2ncnc3cc(-c4ccoc4)sc23)c1 [LCB 03-0039, 3-(6-(furan-3-yl)thieno[3,2-d]pyrimidin-4-ylamino)phenol] | > 50 | > 50 | > 50 | > 70 | 80 | > 50 | 80 | > 70 | 
CN1CCN(Cc2csc(-c3cc4ncnc(Nc5cccc(O)c5)c4s3)c2)CC1 [LCB 03-0102, 3-(6-(4-((4-methylpiperazin-1-yl)methyl)thiophene-2-yl)thieno[3,2-d]pyrimidin-4-ylamino)phenol] | > 60 | > 60 | > 60 | > 70 |  | > 60 | 97 | > 70 | 
OCC1CCCN1Cc1ccc(-c2cc3ncnc(Nc4cccc(O)c4)c3s2)cc1 (stereo not shown) [LCB 03-0057, 3-(6-(4-((2-(hydroxymethyl)pyrrolidin-1-yl)methyl)phenyl)thieno[3,2-d]pyrimidin-4-ylamino)phenol] | > 50 | > 50 | > 50 | > 80 | 64 | > 50 | 87 | > 80 | 
COc1cccc(Nc2ncnc3cc(-c4cccs4)sc23)c1 [LCB 03-0030, (3-Methoxyphenyl)-(6-thiophene-2-yl-thieno[3,2-d]pyrimidin-4-yl)-amine] |  |  |  |  | 80 |  | 96 |  | % inhibition against Hck ([1]; 1 uM compound): >30%; % inhibition against Fgr ([2]; 1 uM compound): >30%; % inhibition against c-Src ([3]; 1 uM compound): >40%; % inhibition against DDR1 ([4]; 1 uM compound): >70%; % inhibition against Lyn ([6]; 1 uM compound): >40%; % inhibition against DDR2 ([8]; 1 uM compound): >70%
Oc1cccc(Nc2ncnc3cc(Br)sc23)c1 [LCB 03-0015, 3-(6-Bromo-thieno[3,2-d]pyrimidin-4-ylamino)-phenol] | > 60 | > 60 | > 60 | > 20 | 71 | > 60 |  | > 20 | 
Oc1cccc(Nc2ncnc3cc(-c4cc(CN5CCCC5)cs4)sc23)c1 [LCB 03-0101, 3-(6-(4-(pyrrolidin-1-ylmethyl)thiophene-2-yl)thieno[3,2-d]pyrimidin-4-ylamino)phenol] |  |  |  |  |  |  |  |  | inhibition at 1 µM [1]: > 70%; inhibition at 1 µM [2]: > 70%; inhibition at 1 µM [3]: > 70%; inhibition at 1 µM [4]: > 70%; inhibition at 10 µM ([5]; 6 h): 71%; inhibition at 1 µM [6]: > 70%; inhibition at 10 µM ([7]; 24 h): 76%; inhibition at 1 µM [8]: > 70%
CCN(CC)C(=O)c1cccc(-c2cc3ncnc(Nc4cccc(O)c4)c3s2)c1 [LCB 03-0054, N,N-diethyl-3-(4-(3-hydroxyphenylamino)thieno[3,2-d]pyrimidin-6-yl)benzamide] | > 60 | > 60 | > 60 | > 80 | 77 | > 50 | 92 | > 80 | 
COc1cccc(Nc2ncnc3cc(-c4ccc(OCCN5CCOCC5)cc4)sc23)c1 [LCB 03-0018, N-(3-methoxyphenyl)-6-(4-(2-morpholinoethoxy)phenyl)thieno[3,2-d]pyrimidin-4-amine] | > 70 | > 70 | > 70 | > 70 | 68 | > 70 | 89 | > 70 | 
Oc1cccc(Nc2ncnc3cc(-c4ccc(CCN5CCCC5)cc4)sc23)c1 [LCB 03-0043] | > 30 | > 30 | > 30 | > 80 |  | > 30 | 66 | > 80 | 
CCNCc1csc(-c2cc3ncnc(Nc4cccc(O)c4)c3s2)c1 [LCB 03-0106, 3-(6-(4-((ethylamino)methyl)thiophene-2-yl)thieno[3,2-d]pyrimidin-4-ylamino)phenol] | > 70 | > 70 | > 70 | > 70 | 63 | > 70 |  | > 70 | 
